Where no end group is shown, it is not given here.
Test system: TcOS2000cl-303 (CTL) with 293-EBNA-B55 cells (HLA-B* 5502)
Experiment: LDH release assay: reactivity of CTL TcOS2000cl-303 to peptide-pulsed 293-EBNA-B55 cells
Format: cell-based, human
Conditions: 293-EBNA-B55 cells pulsed for 1 hour with peptide, co-cultured with TcOS2000cl-303; FIG. 5
Protocol: The first screening involved the following procedures. A pool of about 100 cDNA clones ([…]) was introduced into 293-EBNA-B55 cells having been plated into a 96-well microplate at 8×10^4 cells/well by lipofection method (Lipofectamine 2000, Invitrogen). Pools of respective cDNA clones used for introduction were stored separately. Twenty-four-hour later, TcOS2000cl-303 cells (8×10^4) were added and cultivation continued for another 24 hours, when the cultured supernatant was recovered. The reactivity of CTL was evaluated by determining LDH released in the supernatant by cytotoxic effects using LDH Cytotoxicity Detection Kit (TAKARA BIO). […] As a result, the reactivity was detected in 20 wells. […] As a result, the reactivity was detected in 4 wells.
Antigen peptide regions that bind to HLA-B* 5502 was identified from various peptides synthesized on the basis of the amino acid sequence (SEQ ID NO: 2) of tumor antigen protein PBF using as an index the reactivity of TcOS2000cl-303. 293-EBNA-B55A cells (8×10^4) were pulsed for 1 hour with a peptide having an amino acid sequence (Cys Thr Ala Cys Arg Trp Lys Ala Cys Gln Arg, SEQ ID NO: 46) corresponding to the amino acid sequence at position […] of SEQ ID NO: 2, co-cultured with TcOS2000cl-303 cells (4×10^4) and the reactivity was assessed by LDH release assay in the same manner as that described in Example 2. […]

CTACRWKACQR (cysteine pairing not given here) [SEQ ID NO: 46]
reactivity of TcOS2000cl-303 (LDH release): reacted to peptide-pulsed 293-EBNA-B55 cells

Source: patent publication US7700108B2, “Tumor antigen protein and use thereof” (Dainippon Sumitomo Pharma Co., Ltd., priority 2002, dated 2010)
